Experimental data: patent US9156874B2, “Double-liver-targeting phosphoramidate and phosphonoamidate prodrugs” (Nanjing Molecular Research, Inc., priority 2011, dated 2015)

Experiments:
[1] = Pharmacokinetic (PK) study in rats, plasma and liver levels by LC/MS-MS; assay type: in vivo, SD rats; conditions: for oral bioavailability: rats
Procedure: Pharmacokinetic (PK) study of ester prodrug (FDURPAE), parent drug (FDUR) and prodrug in sodium salt form (FDURPAN) in rats were completed according to following procedure.
SD rats (250-300 g, male, N=24) were used for FDURPAE, FDUR and FDURPAN, purchased from SLAC Laboratory Animal Co. LTD Qualification No.: SCXK SH 2007-0005, 13264. FDURPAE (0.096 mmol, 52.17 mg/kg) and FDUR (0.096 mmol, 23.7 mg/kg) were dosed orally by gavage with a single dose of each compound to rats in a volume of 5 mL/kg in 0.5% carboxymethylcellulose sodium. FDURPAN (0.096 mmol, 50.24 mg) was dosed both orally or iv by gavage with a single dose to rats in a volume of 5 mL/kg in water. The animal was restrained manually at designated time points. Approximately 500 μL of blood/time point was collected into K2EDTA tube via cardiac puncture for terminal bleeding under anesthesia with Isoflurane. Blood samples were put on ice after collection and then centrifuged to obtain plasma sample (2000 g, 5 min, 4° C.) within 15 minutes of sampling. […] All the plasma samples were immediately quenched for protein precipitation. Liver samples were removed at designated time points by first sacrificing the animal by CO2 inhalation, then perfusing the liver with ice cold saline and removing the left middle liver lobe, which was then snap frozen in dry ice. Liver samples were stored at approximately −80° C. until analysis. The liver homogenate was then processed for further analysis by LC/MS-MS. Plasma and liver samples were stored at approximately −80° C. until analysis.
Concentrations of parent drug and possible metabolites in both plasma and liver including FDURPAN (stable metabolite of FDURPAE), FDUR, 5FU and FDUR-MP were determined by LC/MS-MS, respectively.

HCV subgenomic replicon = test: HCV replicon assay (Huh-7, luciferase reporter); assay type: cell-based
Procedure: Anti-Hepatitis C Activity. Anti-HCV activity and cytotoxicity of compounds disclosed herein were assayed following the method described in WO 2007/027248.
The anti-HCV activity and toxicity of the exemplary compounds can be tested in two biological assays—a cell-based HCV replicon assay and cytotoxicity assay (WO 2007/027248).
A human hepatoma cell line (Huh-7) containing replicating HCV subgenomic replicon with a luciferase reporter gene (luc-ubi-neo) was used to evaluate anti-HCV activity of the compounds. In this assay, level of luciferase signal correlates with the viral RNA replication directly. The HCV replicon-reporter cell line (NK/luc-ubi-neo) was cultured in DMEM medium supplemented with 10% fetal bovine serum and 0.5 mg/ml Geneticin (G418). Cells were maintained in a subconfluent state to ensure high levels of HCV replicon RNA synthesis.
To evaluate the antiviral activity of compounds, serial dilutions were prepared with concentrations ranging from 0.14 to 300 μM. Diluted compounds were transferred to a 96-well plate followed by the addition of replicon cells (6000 cells per well). Cells were incubated with the compounds for 48 h after which luciferase activity was measured. Reduction of luciferase signal reflected the decrease of HCV replicon RNA in the treated cells and used to determine the EC50 value (concentration which yielded a 50% reduction in luciferase activity).

| SMILES | detection of active drug FDUR-MP in plasma ([1]; rat, oral administration) | detection of metabolite 5FU in plasma ([1]; rat, oral administration) | oral bioavailability [1] | anti-HCV activity (HCV subgenomic replicon) |
| --- | --- | --- | --- | --- |
| Cc1ccccc1CO[P@](=O)(N[C@H](C)C(=O)OC(C)C)OCC1OC(n2cc(F)c(=O)[nH]c2=O)CC1O (single isomer, unassigned) [FDURPAE (F5)] | could not be detected | could not be detected | significantly improved oral bioavailability |  |
| CC1(F)C(O)C(COP(=O)(NCc2ccccc2)OCc2ccccc2)OC1n1ccc(=O)[nH]c1=O (stereo not drawn) [F2] |  |  |  | did not show any anti-HCV activity |
| Cc1ccccc1COP(=O)(NCc1ccccc1)OCC1OC(n2ccc(=O)[nH]c2=O)C(C)(F)C1O (stereo not drawn) [F3] |  |  |  | potent anti-HCV activity |
| Cc1ccccc1COP(=O)(NCc1ccccc1)OCC1OC(n2cc(F)c(=O)[nH]c2=O)CC1O (stereo not drawn) [F4] |  |  | very low |  |
